# What was measured:
# [1] = In vitro T1 relaxation of water protons (IBM PC20 Minispectrometer, 20 MHz); assay type: physicochemical
# Text: Fe^+3 as the dextran-iron oxide (in which the iron is complexed loosely to the hydroxyl groups of dextran), was obtained as "Proferdex" (20% iron, w/w) (Fisons Pharmaceuticals) and tested, both before and after extensive dialysis (to remove loosely bound iron), for NMR T1-enhancing activity in vitro (using an IBM PC20 Minispectrometer, 20 MHz).
# [2] = cited from earlier work
# [3] = cited from earlier work; remark: listed apart in the source
# [4] = tested on: liver, kidney, bone marrow; test: In vivo MR imaging T1 in rats (Example 18b); parameters: species or system Sprague-Dawley rats; conditions: Gd 0.30 (soluble), 0.15 (microspheres), 0.30 (dimeglumine) mmol/kg; ~30 min
# Experimental: (§1) Test materials were injected intravenously into 500 gm Sprague-Dawley rats. At approximately 30 minutes, the rats were placed in the head coil of a 0.35 Tesla clinical imaging device (Diasonics Corp.), and T1-weighted images (using both a spin-echo pulse sequence at TR's of 0.5, 1.5 and 2.0, and an inversion recovery sequence) were obtained on image slices of 0.5 cm thickness taken through the liver and kidneys. T1 relaxation times were determined from the TR=0.5 and 2.0 data using area-averaging of signal intensities and a proprietary software program for calculations. At the completion of imaging, the rats were sacrificed by decapitation (exsanguination). Their livers, kidneys and spleens were excised, tested for in vitro correlations with the in vivo changes in proton T1 relaxation times and then placed in buffered formalin fixative for histopathologic evaluation.
# human brain tumors = conditions: preliminary studies; cited from earlier work
# [5] = tested on: 7777-strain Morris hepatoma; test: MR imaging of Morris hepatoma (7777) in Buffalo rats; assay type: in vivo, Buffalo-strain rats; conditions: after injection
# Experimental: After two to three weeks the local tumors had reached an average diameter of 0.5 and 1.0 cm. The rats were then imaged both before and after i.v. injections of Gd-DTPA or microsphere Gd-DTPA. MR imaging was performed in a 30cm rf coil with a 0.35 Tesla, Diasonics clinical MRI system (as described above). Post-contrast images were obtained serially beginning immediately after injection and continuing for several hours thereafter.
# BRO human melanoma = test: MR imaging of human BRO melanoma in nude mice; assay type: in vivo, Swiss-strain nude mice bearing human melanoma
# Experimental: These studies are performed using the rapidly proliferating, amelanotic, BRO human melanoma grown to a weight of 2.0-6.0 gms in the axillary soft tissues of Swiss-strain nude mice. The amelanotic nature of the tumor avoids any potential for alteration of unenhanced tissue-relaxation times by naturally occurring paramagnetic substances which have been described for pigmented melanomas. The axillary location of tumors allows imaging of the tumor and liver in adjacent slices. This shortens the imaging time for each group of mice and provides maximal anatomic separation of tumors from the higher-intensity kidneys and bladder. MR imaging is performed on a Diasonics 0.35T instrument, using a 30-cm rf coil, and a T1-weighted spin-echo pulse sequence (TR 500, TE 40). Pentobarbital is used for animal anesthesia in order to avoid drug modulation of image intensities. T1 relaxation were performed on the freshly excised organs. In general, these T1's decreased in proportion to increased image intensities. […] The new soluble polymeric agent had the following advantages: […]
# liver, spleen, kidney = test: In vitro T1 of excised rat organs (Example 18b); assay type: in vivo, Sprague-Dawley rats; conditions: same doses
# Experimental: as §1
# spleen = test: T1 of freshly excised rat spleens; assay type: in vivo, Sprague-Dawley rats; conditions: 30 min post vs. pre
# Text: (§2) Sprague-Dawley rats were imaged using a 0.35-Tesla, Diasonics clinical MR imaging system and a 30-cm rf coil. Three clinically relevant pulse sequences were used: 1) spin-echo with a TR of 0.5 seconds (for T1-weighted images), 2) inversion-recovery (IR) (for T1-weighted images), and 3) spin-echo with a TR of 2.0 seconds (for T2-weighted images). Diasonics software was used to calculate the area-averaged tissue intensities before and after injection of contrast agents. Dual pulse sequences (spin-echo, with TR's of 0.5 and 1.5 seconds or 1.0 and 2.0 seconds) were also used to calculate the in vivo T1 relaxation times. At the conclusion of imaging, the liver, spleen and kidneys were excised and their T1 (IR) and T2 (Carr-Purcell-Meiboom-Gill) relaxation times were determined at 37° C., using an IBM PC20 Minispectrometer. For these in vitro experiments, uninjected rats were used in place of preinjection controls.
# liver = test: Liver T1 decrease in mice; assay type: in vivo; conditions: usual 30-minute imaging interval; 0.10 to 0.30 mmoles/kg
# blood in heart chambers = test: T1-weighted blood flow images of cardiac chambers; assay type: in vivo, Sprague-Dawley rats; conditions: comparable Gd dose
# Experimental: Gd:DTPA-dextran microspheres (at 0.3 mmoles Gd/kg) were injected i.v. at time zero into Sprague-Dawley rats and images were obtained immediately and serially each 5 minutes×4 (spin-echo, multi-echo, TR=0.5 and 1.5).
# [6] = tested on: liver, kidney, bone marrow; test: In vivo MR imaging of normal tissues, Sprague-Dawley rats (0.35 Tesla)
# Text: as §2
# Post-contrast images were obtained serially beginning immediately after the i.v. injection of contrast agents and continuing for several hours thereafter.
# liver, kidney = test: Proton T1 relaxation times in mouse organs (Example 18a); assay type: in vivo, CBA mice; conditions: 30 min; Gd dose 0.23 mmol/kg (DEAE forms), 0.47 (dimeglumine)
# Experimental: Test materials were injected i.v. into 25 gm CBA mice. At 30 min the mice were sacrificed by decapitation (exsanguination) and the excised livers and kidneys assessed for changes in proton T1 relaxation times (20 MHz; IR pulse sequence). Doses of test materials were made equivalent based on in vitro potency (ID50 analysis).
# [7] = 30 min post vs. pre, Gd 0.3 mmoles/kg dimeglumine, 0.009 mmoles/kg microspheres
smiles,measurement,setting,value
O=[N+]([O-])[O-].O=[N+]([O-])[O-].O=[N+]([O-])[O-].[Fe+3] [Ferric nitrate],R1 relaxivity,"[1]; Table 1, iron compounds",1.476 mmol⁻¹ s⁻¹
"O=C(O)CN1CCN(CC(=O)O)CCN(CC(=O)O)CCN(CC(=O)O)CC1 [DOTA, 1,4,7,10-tetraazacyclododecane-N,N',N""-tetraacetic acid]","relaxivity, times that of Gd-DTPA",[2]; wide range of Larmor frequencies,approximately 2 times
[Cl][Gd]([Cl])[Cl] [GdCl3],R1 (in vitro T1 relaxivity),[1]; physiologic saline,3.03 mM⁻¹ s⁻¹
CNC[C@H](O)[C@@H](O)[C@H](O)[C@H](O)CO.CNC[C@H](O)[C@@H](O)[C@H](O)[C@H](O)CO.O=C([O-])CN(CCN(CC(=O)[O-])CC(=O)O)CCN(CC(=O)[O-])CC(=O)O.[Gd+3] [Gd:DTPA dimeglumine],clearance half-time from bloodstream and tumors,[3]; in vivo,20 min
same,sequestered in the kidneys,[3]; intravenous,> 90%
same,"T1 (% of control), in vivo, kidney",[4],57%
same,"T1 (% of control), in vivo, liver",[4],83%
same,enhancement of human brain tumors,human brain tumors,almost all human brain tumors undergo significant enhancement
same,time by which contrast was significantly reduced,[5],≤ 1.5 h
same,enhancement of BRO melanoma,BRO human melanoma; 0.03 mmols Gd per kg,barely perceptible
same,"dose required for enhancement, higher than 0.03 mmols Gd per kg",BRO human melanoma; in vivo,1/2
same,"T1 (% of control), in vitro, liver","liver, spleen, kidney; control 275 msec",88%
same,"T1 (% of control), in vitro, spleen","liver, spleen, kidney; control 464 msec",86%
same,"T1 (% of control), in vitro, kidney","liver, spleen, kidney; control 492 msec",25%
same,relaxivity at higher radio frequencies,[2]; typically 15 MHz,marked decrease in relaxivity
same,"ID50 (total weight), concentration reducing T1 to 50% of buffered saline","[1]; 20 MHz, phosphate-buffered saline",84 µg/mL
same,% decrease in T1 of spleen,spleen,14.4%
same,changes in liver T1,liver,minimal changes in liver Tl's
same,enhancement of blood flow images,blood in heart chambers,almost completely ineffective
same,"% decrease in T1, kidney",[6]; [7],55.7%
same,"% decrease in T1, liver",[6]; [7],24.6%
same,time after which all liver enhancement was lost,"[6]; rat, in vivo",50 min
same,"T1 (% of control), kidney","liver, kidney",24%
same,"T1 (% of control), liver","liver, kidney",83%
